Square brackets hold non-standard residues; d marks the D form. Peptide text beside a SMILES is read from it. * marks the point of attachment. Biotin = O=C1N[C@H]2[C@H](CS[C@H]2CCCCC(=O)*)N1; pS = N[C@@H](COP(=O)(O)O)C(=O)O
Experiments:
[1] = test system: T98G human glioblastoma cells; experiment: Disintegration of the microtubule network in T98G cells (anti-tubulin immunostaining, cell counting); assay type: cell-based; conditions: 6 hours; for Disintegration of MT (% of cells): T98G cells, 10 µM biotinylated peptide, anti-tubulin immunostaining, minimum 200 cells per experiment, mean ± S.E.M., triplicated; for Effect on MT network of T98G / glioma cells (in words): 10 µM, immunocytochemistry
Method: (§1) Cells containing the biotinylated peptide were detected using Alexa-labeled avidin (green fluorescence) and those displaying a normal or a destroyed MT network were detected with an anti-tubulin antibody (red fluorescence) ( Figure 1A-B ). Then, we counted a minimum of 200 cells per slide containing or not the peptide, and with a normal or destroyed microtubule network ( Figure 1C ). As illustrated on Figure 1A glioblastoma cells contain a rich MT network. […] Cells were plated on cover slips and cultured in media containing biotinylated peptides (10 μM) for 6 hours. […] The cells were then incubated during 10 min in a 0.5% triton X-100 permeabilization solution, and washed 3 times in PBS. Next, they were incubated in a blocking solution (PBS 5% BSA) for 15 min, then incubated with mouse anti-ß-tubulin antibody (Sigma) 1/200 overnight. Tubulin and biotinylated peptides were localized using respectively Alexa 568 nm anti-mouse antibody and streptavidin Alexa 488 nm (Molecular Probes) 1/200 for 1 hour, followed by washing in PBS. […] Sigma) for 5 min, washed twice with PBS, then cover slips were mounted with an antifading solution. Observations were performed with an Olympus confocal microscope (BX50) using Fluoview.3.1. Software or a Leica DMI6000 inverted microscope and analyzed with Metamorph 7.1.7.0. software. We counted cells containing the peptide and cells displaying a destroyed MT network. Experiments were repeated at least three times, and a minimum of 200 cells was scored during each experiment.

[2] = test system: T98G human glioblastoma cells; experiment: Peptide incorporation into T98G cells (immunocytochemistry, cell counting); assay type: cell-based; conditions: 6 hours; for Peptide incorporation (% of cells): T98G cells, 10 µM biotinylated peptide, Alexa-labeled avidin/streptavidin fluorescence microscopy, minimum 200 cells per experiment, mean ± S.E.M., triplicated; for Cell penetration / internalization in T98G cells (in words): 10 µM, immunocytochemistry, compared to original NFL-TBS.40-63
Method: as §1

Row | Compound | Disintegration of MT (% of cells) [1] | Peptide incorporation (% of cells) [2] | Cell penetration / internalization in T98G cells (in words) [2] | Effect on MT network of T98G / glioma cells (in words) [1]
1 | CC(C)C[C@H](NC(=O)[C@H](CO)NC(=O)[C@H](CO)NC(=O)[C@H](CO)NC(=O)[C@@H](NC(=O)[C@@H]1CCCN1C(=O)[C@H](C)NC(=O)[C@H](C)NC(=O)[C@H](Cc1ccc(O)cc1)NC(=O)[C@H](CO)NC(=O)[C@H](CO)NC(=O)[C@H](Cc1ccc(O)cc1)NC(=O)CCCC[C@@H]1SC[C@@H]2NC(=O)N[C@@H]21)C(C)C)C(=O)N[C@@H](CO)C(=O)N[C@H](C(=O)N[C@@H](CCCNC(=N)N)C(=O)N[C@@H](CCCNC(=N)N)C(=O)N[C@@H](CO)C(=O)N[C@@H](Cc1ccc(O)cc1)C(=O)N[C@@H](CO)C(=O)N[C@@H](CO)C(=O)N[C@@H](CO)C(=O)N[C@@H](CO)C(=O)NCC(=O)N[C@@H](CO)C(N)=O)C(C)C [Ser5Ala] (Biotin-YSSYAAPVSSSLSVRRSYSSSSGS-NH2) | 23.6±1.6 % of cells | 16.0±1.4 % of cells |  | 
2 | CC(C)C[C@H](NC(=O)[C@H](CO)NC(=O)[C@H](CO)NC(=O)[C@H](C)NC(=O)[C@@H](NC(=O)[C@@H]1CCCN1C(=O)[C@H](C)NC(=O)[C@H](CO)NC(=O)[C@H](Cc1ccc(O)cc1)NC(=O)[C@H](CO)NC(=O)[C@H](CO)NC(=O)[C@H](Cc1ccc(O)cc1)NC(=O)CCCC[C@@H]1SC[C@@H]2NC(=O)N[C@@H]21)C(C)C)C(=O)N[C@@H](CO)C(=O)N[C@H](C(=O)N[C@@H](CCCNC(=N)N)C(=O)N[C@@H](CCCNC(=N)N)C(=O)N[C@@H](CO)C(=O)N[C@@H](Cc1ccc(O)cc1)C(=O)N[C@@H](CO)C(=O)N[C@@H](CO)C(=O)N[C@@H](CO)C(=O)N[C@@H](CO)C(=O)NCC(=O)N[C@@H](CO)C(N)=O)C(C)C [Ser9Ala] (Biotin-YSSYSAPVASSLSVRRSYSSSSGS-NH2) | 27.1±4.8 % of cells | 23.3±8.4 % of cells | penetrated in cells significantly although to a much lesser extent than the wt peptide | 
3 | CC(C)C[C@H](NC(=O)[C@H](CO)NC(=O)[C@H](C)NC(=O)[C@H](CO)NC(=O)[C@@H](NC(=O)[C@@H]1CCCN1C(=O)[C@H](C)NC(=O)[C@H](CO)NC(=O)[C@H](Cc1ccc(O)cc1)NC(=O)[C@H](CO)NC(=O)[C@H](CO)NC(=O)[C@H](Cc1ccc(O)cc1)NC(=O)CCCC[C@@H]1SC[C@@H]2NC(=O)N[C@@H]21)C(C)C)C(=O)N[C@@H](CO)C(=O)N[C@H](C(=O)N[C@@H](CCCNC(=N)N)C(=O)N[C@@H](CCCNC(=N)N)C(=O)N[C@@H](CO)C(=O)N[C@@H](Cc1ccc(O)cc1)C(=O)N[C@@H](CO)C(=O)N[C@@H](CO)C(=O)N[C@@H](CO)C(=O)N[C@@H](CO)C(=O)NCC(=O)N[C@@H](CO)C(N)=O)C(C)C [Ser10Ala] (Biotin-YSSYSAPVSASLSVRRSYSSSSGS-NH2) | 32.9±1.9 % of cells | 34.5±0 % of cells | penetrated in cells significantly although to a much lesser extent than the wt peptide | 
4 | CC(C)C[C@H](NC(=O)[C@H](C)NC(=O)[C@H](CO)NC(=O)[C@H](CO)NC(=O)[C@@H](NC(=O)[C@@H]1CCCN1C(=O)[C@H](C)NC(=O)[C@H](CO)NC(=O)[C@H](Cc1ccc(O)cc1)NC(=O)[C@H](CO)NC(=O)[C@H](CO)NC(=O)[C@H](Cc1ccc(O)cc1)NC(=O)CCCC[C@@H]1SC[C@@H]2NC(=O)N[C@@H]21)C(C)C)C(=O)N[C@@H](CO)C(=O)N[C@H](C(=O)N[C@@H](CCCNC(=N)N)C(=O)N[C@@H](CCCNC(=N)N)C(=O)N[C@@H](CO)C(=O)N[C@@H](Cc1ccc(O)cc1)C(=O)N[C@@H](CO)C(=O)N[C@@H](CO)C(=O)N[C@@H](CO)C(=O)N[C@@H](CO)C(=O)NCC(=O)N[C@@H](CO)C(N)=O)C(C)C [Ser11Ala] (Biotin-YSSYSAPVSSALSVRRSYSSSSGS-NH2) | 15.9±6.5 % of cells | 2.5±2.5 % of cells |  | 
5 | CC(C)C[C@H](NC(=O)[C@H](CO)NC(=O)[C@H](CO)NC(=O)[C@H](CO)NC(=O)[C@@H](NC(=O)[C@@H]1CCCN1C(=O)[C@H](C)NC(=O)[C@H](CO)NC(=O)[C@H](Cc1ccc(O)cc1)NC(=O)[C@H](CO)NC(=O)[C@H](CO)NC(=O)[C@H](Cc1ccc(O)cc1)NC(=O)CCCC[C@@H]1SC[C@@H]2NC(=O)N[C@@H]21)C(C)C)C(=O)N[C@@H](C)C(=O)N[C@H](C(=O)N[C@@H](CCCNC(=N)N)C(=O)N[C@@H](CCCNC(=N)N)C(=O)N[C@@H](CO)C(=O)N[C@@H](Cc1ccc(O)cc1)C(=O)N[C@@H](CO)C(=O)N[C@@H](CO)C(=O)N[C@@H](CO)C(=O)N[C@@H](CO)C(=O)NCC(=O)N[C@@H](CO)C(N)=O)C(C)C [Ser13Ala] (Biotin-YSSYSAPVSSSLAVRRSYSSSSGS-NH2) | 16.6±5.2 % of cells | 12.2±0.8 % of cells |  | 
6 | CC(C)C[C@H](NC(=O)[C@H](CO)NC(=O)[C@H](CO)NC(=O)[C@H](CO)NC(=O)[C@@H](NC(=O)[C@@H]1CCCN1C(=O)[C@H](C)NC(=O)[C@H](CO)NC(=O)[C@H](Cc1ccc(O)cc1)NC(=O)[C@H](CO)NC(=O)[C@H](CO)NC(=O)[C@H](Cc1ccc(O)cc1)NC(=O)CCCC[C@@H]1SC[C@@H]2NC(=O)N[C@@H]21)C(C)C)C(=O)N[C@@H](CO)C(=O)N[C@H](C(=O)N[C@@H](CCCNC(=N)N)C(=O)N[C@@H](CCCNC(=N)N)C(=O)N[C@@H](CC(=O)O)C(=O)N[C@@H](Cc1ccc(O)cc1)C(=O)N[C@@H](CC(=O)O)C(=O)N[C@@H](CO)C(=O)N[C@@H](CO)C(=O)N[C@@H](CO)C(=O)NCC(=O)N[C@@H](CO)C(N)=O)C(C)C [Ser17,19Asp] (Biotin-YSSYSAPVSSSLSVRRDYDSSSGS-NH2) | 18.6±6.8 % of cells | 29.0±12.7 % of cells | decreased internalization | not altered
7 | CC(C)C[C@H](NC(=O)[C@H](CO)NC(=O)[C@H](CO)NC(=O)[C@H](CO)NC(=O)[C@@H](NC(=O)[C@@H]1CCCN1C(=O)[C@H](C)NC(=O)[C@H](CO)NC(=O)[C@H](Cc1ccc(O)cc1)NC(=O)[C@H](CO)NC(=O)[C@H](CO)NC(=O)[C@H](Cc1ccc(O)cc1)NC(=O)CCCC[C@@H]1SC[C@@H]2NC(=O)N[C@@H]21)C(C)C)C(=O)N[C@@H](CO)C(=O)N[C@H](C(=O)N[C@@H](CCCNC(=N)N)C(=O)N[C@@H](CCCNC(=N)N)C(=O)N[C@@H](COP(=O)(O)O)C(=O)N[C@@H](Cc1ccc(O)cc1)C(=O)N[C@@H](COP(=O)(O)O)C(=O)N[C@@H](CO)C(=O)N[C@@H](CO)C(=O)N[C@@H](CO)C(=O)NCC(=O)N[C@@H](CO)C(N)=O)C(C)C [Ser17,19SerP] (Biotin-YSSYSAPVSSSLSVRR[pS]Y[pS]SSSGS-NH2) | 11.0±3.0 % of cells | 32±2.1 % of cells | decreased internalization | not altered
8 | CC(C)C[C@H](NC(=O)[C@H](CO)NC(=O)[C@H](CO)NC(=O)[C@H](CO)NC(=O)[C@@H](NC(=O)[C@@H]1CCCN1C(=O)[C@H](C)NC(=O)[C@H](CO)NC(=O)[C@H](Cc1ccc(O)cc1)NC(=O)[C@H](CO)NC(=O)[C@H](CO)NC(=O)[C@H](Cc1ccc(O)cc1)NC(=O)CCCC[C@@H]1SC[C@@H]2NC(=O)N[C@@H]21)C(C)C)C(=O)N[C@@H](CO)C(=O)N[C@H](C(=O)N[C@@H](CCCNC(=N)N)C(=O)N[C@@H](CCCNC(=N)N)C(=O)N[C@@H](C)C(=O)N[C@@H](Cc1ccc(O)cc1)C(=O)N[C@@H](CO)C(=O)N[C@@H](CO)C(=O)N[C@@H](CO)C(=O)N[C@@H](CO)C(=O)NCC(=O)N[C@@H](CO)C(N)=O)C(C)C [Ser17Ala] (Biotin-YSSYSAPVSSSLSVRRAYSSSSGS-NH2) | 18.1±4.4 % of cells | 4.6±1.8 % of cells |  | 
9 | CC(C)C[C@H](NC(=O)[C@H](CO)NC(=O)[C@H](CO)NC(=O)[C@H](CO)NC(=O)[C@@H](NC(=O)[C@@H]1CCCN1C(=O)[C@H](C)NC(=O)[C@H](CO)NC(=O)[C@H](Cc1ccc(O)cc1)NC(=O)[C@H](CO)NC(=O)[C@H](CO)NC(=O)[C@H](Cc1ccc(O)cc1)NC(=O)CCCC[C@@H]1SC[C@@H]2NC(=O)N[C@@H]21)C(C)C)C(=O)N[C@@H](CO)C(=O)N[C@H](C(=O)N[C@@H](CCCNC(=N)N)C(=O)N[C@@H](CCCNC(=N)N)C(=O)N[C@@H](CC(=O)O)C(=O)N[C@@H](Cc1ccc(O)cc1)C(=O)N[C@@H](CO)C(=O)N[C@@H](CO)C(=O)N[C@@H](CO)C(=O)N[C@@H](CO)C(=O)NCC(=O)N[C@@H](CO)C(N)=O)C(C)C [Ser17Asp] (Biotin-YSSYSAPVSSSLSVRRDYSSSSGS-NH2) | 22.2±3.4 % of cells | 31.3±11.2 % of cells | decreased internalization | not altered

Reference: PMC3494675, “Structure-Function Analysis of the Glioma Targeting NFL-TBS.40-63 Peptide Corresponding to the Tubulin-Binding Site on the Light Neurofilament Subunit” (PLoS ONE, 2012)
